# Measurements published in patent publication US12540165B2, “HSP fusion protein with anti-chemorepellant agent for treatment of cancer” (The General Hospital Corporation, priority 2016, dated 2026).
# Where two headings read alike, the source gives them in different places.
# Assays:
# [1] = test system: Luc-40L mesothelioma cancer cells; experiment: Luc-40L mesothelioma model, survival (Example 4); format: in vivo, C57BL/6 mice; details: compared to saline, VIC-008 20 μg, AMD3100 1 μg/g body weight, once a week for four weeks
# [2] = test system: Luc-AE17 mesothelioma cancer cells; experiment: Luc-AE17 mesothelioma model, survival (Example 4); format: in vivo, C57BL/6 mice; details: compared to saline, VIC-008 20 μg, AMD3100 1 μg/g body weight, once a week for four weeks
# [3] = test system: 40L mouse mesothelioma cell line; experiment: 40L intraperitoneal malignant mesothelioma model: tumor weight and survival (Example 5); format: in vivo, C57BL/6 mice; details: compared to saline
# [4] = test system: AE17 mouse mesothelioma cell line; experiment: AE17 intraperitoneal malignant mesothelioma model: tumor weight and survival (Example 5); format: in vivo, C57BL/6 mice; details: compared to saline
# [5] = test system: 40L mouse mesothelioma cell line; experiment: Immune profiling by flow cytometry of spleens and tumors of 40L tumor-bearing mice; format: in vivo, C57BL/6 mice
# [6] = test system: AE17 mouse mesothelioma cell line; experiment: Immune profiling by flow cytometry of spleens, lymph nodes and tumors of AE17 tumor-bearing mice; format: in vivo, C57BL/6 mice
# [7] = test system: 40L mouse mesothelioma cell line; experiment: Ex vivo restimulation with recombinant mesothelin, intracellular IFN-γ in CD8+ T cells, 40L mice; set-up: species or system C57BL/6 mice; details: splenic CD8+ T cells, compared to saline
# [8] = test system: AE17 mouse mesothelioma cell line; experiment: Ex vivo restimulation with recombinant mesothelin, intracellular IFN-γ in CD8+ T cells, AE17 mice; set-up: species or system C57BL/6 mice; details: compared to saline
# [9] = test system: Foxp3^+ Treg cells; details: AMD3100 5 μg/ml, 24 hours
# [10] = spleens, 40L, compared to saline
# [11] = tumors, 40L, compared to saline
# [12] = lymph nodes, AE17, compared to saline
# [13] = spleens, AE17, compared to saline
# [14] = tumors, AE17, compared to saline
smiles,measurement,setting,value
"c1cc(CN2CCCNCCNCCCNCC2)ccc1CN1CCCNCCNCCCNCC1 [AMD3100, 1,1′-[1,4-phenylenebis(methylene)]bis[1,4,8,11-tetraazacyclotetradecane]]",survival of tumor-bearing mice,[1],slight effect on survival
same,survival of tumor-bearing mice,[2],slight effect on survival
same,animal survival,[3],only modest benefit to survival
same,animal survival,[4],only modest benefit to survival
same,proportions of Treg cells,[5]; spleens of 40L tumor-bearing mice,did not alter
same,proportion of CD8+ T cells in total live cells,[5]; [10],did not increase
same,proportion of PD-1-expressing CD8+ T cells,[5]; [10],significantly fewer
same,IL-2+ CD40L+ cells in the Foxp3+ CD25− Treg population,[5]; tumors of 40L mice,significantly more cells
same,ratio of CD25− cells to CD25+ cells within the Foxp3+ population,[5]; tumors of 40L mice,significantly increased
same,proportion of CD8+ T cells in total live cells,[5]; [11],did not increase
same,proportion of PD-1-expressing CD8+ T cells,[5]; [11],significantly fewer
same,proportions of Treg,[5]; [11],significantly decreased
same,ratio of CD8+ T cells to Treg,[5]; [11],increased
same,IL-2+ CD40L+ cells in the Foxp3+ CD25− Treg population,[6]; lymph nodes of AE17 mice,significantly more cells
same,cell ratio of CD8+ T cells to Treg cells,[6]; [12],significantly increased
same,proportion of CD8+ T cells in total live cells,[6]; [12],did not increase
same,proportion of PD-1-expressing CD8+ T cells,[6]; [12],significantly fewer
same,ratio of CD25− cells to CD25+ cells within the Foxp3+ population,"[6]; lymph nodes, AE17 model",significantly increased
same,Treg in the lymph nodes,"[6]; lymph nodes, AE17 tumor-bearing mice",generally reduced
same,proportion of CD8+ T cells in total live cells,[6]; [13],did not increase
same,proportion of PD-1-expressing CD8+ T cells,[6]; [13],significantly fewer
same,proportion of CD8+ T cells in total live cells,[6]; [14],did not increase
same,proportion of PD-1-expressing CD8+ T cells,[6]; [14],significantly fewer
same,proportions of Treg,[6]; [14],significantly decreased
same,ratio of CD8+ T cells to Treg,[6]; [14],increased
same,mesothelin-specific IFN-γ expression in CD8+ T cells,[7],did not enhance
same,mesothelin-specific IFN-γ expression in CD8+ T cells,[8]; lymph node CD8+ T cells,did not enhance
same,mesothelin-specific IFN-γ expression in CD8+ T cells,[8]; splenic CD8+ T cells,did not enhance
same,ratio of the proportion of CD25− cells to CD25+ cells in the Foxp3+ CD4+ population,[9]; no anti-CD3/CD28 stimulation,did not change
same,conversion of Foxp3+ CD25− Treg into IL-2+ CD40L+ cells,[9]; with anti-CD3/CD28 stimulation,converted more
same,ratio of the proportion of CD25− cells to CD25+ cells in the Foxp3+ CD4+ population,[9]; with anti-CD3/CD28 stimulation,significantly increased
